molecular target: T1, human TGR5 (Homo sapiens, UniProt Q8TDU6); assay: Cell-based TGR5 assay (cAMP generation, HTRF); settings: HEK293 cells stably transfected with human TGR5; cAMP by HTRF; 30 minutes at 37° C.; read-out: pEC50 Human TGR5 (converted)
T1 construct: expressed in transfected cells; host or cells: HEK293
T1 sequence (Q8TDU6 1-330): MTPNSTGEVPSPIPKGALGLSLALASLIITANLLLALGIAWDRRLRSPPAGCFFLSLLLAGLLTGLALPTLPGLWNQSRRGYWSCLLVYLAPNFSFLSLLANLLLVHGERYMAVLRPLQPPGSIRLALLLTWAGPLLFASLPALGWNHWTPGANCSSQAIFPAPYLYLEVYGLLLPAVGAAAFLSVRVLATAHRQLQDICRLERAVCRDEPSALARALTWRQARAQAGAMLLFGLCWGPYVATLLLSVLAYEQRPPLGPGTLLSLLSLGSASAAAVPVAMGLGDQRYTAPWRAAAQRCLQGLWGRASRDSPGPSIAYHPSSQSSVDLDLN
In short: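 Read-out was HTRF detection of cAMP, converted to concentration via a standard curve and fitted (3-parameter logistic) for pEC50 and maximal response. Agonist stimulation used HEK293 cells stably transfected with human TGR5, incubated 30 min at 37° C in IBMX-containing buffer at 0.05 nM to 10 μM compound.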

| EC50 [nM] | Structure (SMILES) |
| --- | --- |
| 126 to 1000 | O=C([C@@H](O)[C@@H](O)[C@H](O)[C@@H](O)CO)N(CCCSc1ccc(Cl)c(CNC2(c3cnccc3-c3ccccc3OC3CC3)CC2)c1)CCN1CCS(=O)(=O)CC1 [Compound I-530, (2S,3S,4R,5S)-N-[3-({4-chloro-3-[({1-[4-(2-cyclopropoxyphenyl)pyridin-3-yl]cyclopropyl)amino)methyl]phenyl}sulfanyl)propyl]-N-[2-(1,1-dioxo-1λ^6,4-thiomorpholin-4-yl)ethyl]-2,3,4,5,6-pentahydroxyhexanamide] |
| 126 to 1000 | O=C(NCCN1CCN(S(=O)(=O)c2ccc(Cl)c(COC3(c4cnccc4-c4ccccc4OC4CC4)CC3)c2)CC1)NC[C@H](O)[C@@H](O)[C@H](O)[C@H](O)CO [Compound I-425, 1-(2-{4-[4-chloro-3-({1-[4-(2-cyclopropoxyphenyl)pyridin-3-yl]cyclopropoxy}methyl)benzenesulfonyl]piperazin-1-yl}ethyl)-3-[(2S,3R,4R,5R)-2,3,4,5,6-pentahydroxyhexyl]urea] |
| < 100 | CCN(CCOCCNC(=O)NC[C@H](O)[C@@H](O)[C@H](O)[C@H](O)CO)S(=O)(=O)c1ccc(Cl)c(COC2(c3cnccc3-c3ccccc3OC3CC3)CC2)c1 [Compound I-411, 1-(2-{2-[N-ethyl4-chloro-3-({1-[4-(2-cyclopropoxyphenyl)pyridin-3-yl]cyclopropoxy}methyl)benzenesulfonamido]ethoxy}ethyl)-3-[(2S,3R,4R,5R)-2,3,4,5,6-pentahydroxyhexyl]urea] |
| 126 to 1000 | CC(C)(CO)CN(C[C@@H](O)[C@H](O)[C@@H](O)[C@@H](O)CO)C(=O)CCCSc1ccc(Cl)c(COC2(c3cnccc3-c3ccccc3OC3CC3)CC2)c1 [Compound I-687, 4-{[4-chloro-3-({1-[4-(2-cyclopropoxyphenyl)pyridin-3-yl]cyclopropoxy}methyl)phenyl]sulfanyl}-N-(3-hydroxy-2,2-dimethylpropyl)-N-[(2R,3S,4S,5S)-2,3,4,5,6-pentahydroxyhexyl]butanamide] |
| < 100 | O=C(NCCCCCS(=O)(=O)c1ccc(Cl)c(COC2(c3cnccc3-c3ccccc3OC3CC3)CC2)c1)NC[C@H](O)[C@@H](O)[C@H](O)[C@H](O)CO [Compound I-640, 1-{5-[4-chloro-3-({1-[4-(2-cyclopropoxyphenyl)pyridin-3-yl]cyclopropoxy}methyl)benzenesulfonyl]pentyl}-3-[(2S,3R,4R,5R)-2,3,4,5,6-pentahydroxyhexyl]urea] |
| 126 to 1000 | O=C(NC[C@H](O)[C@@H](O)[C@H](O)[C@H](O)CO)c1cccc(OCc2ccc(Cl)c(COC3(c4cnccc4-c4ccccc4OC4CC4)CC3)c2)c1 [Compound I-727, 3-((4-chloro-3-((1-(4-(2-cyclopropoxyphenyl)pyridin-3-yl)cyclopropoxy)methyl)benzyl)oxy)-N-((2S,3R,4R,5R)-2,3,4,5,6-pentahydroxyhexyl)benzamide] |
| 126 to 1000 | CNC(=O)CN(C[C@H](O)[C@@H](O)[C@H](O)[C@H](O)CO)C(=O)CCCSc1ccc(Cl)c(COC2(c3cnccc3-c3ccccc3OC3CC3)CC2)c1 [Compound I-670, 4-{[4-chloro-3-({1-[4-(2-cyclopropoxyphenyl)pyridin-3-yl]cyclopropoxy}methyl)phenyl]sulfanyl}-N-[(methylcarbamoyl)methyl]-N-[(2S,3R,4R,5R)-2,3,4,5,6-pentahydroxyhexyl]butanamide] |
| < 100 | Cc1ccc(C(C)CCCC(=O)N(CCO)C[C@H](O)[C@@H](O)[C@H](O)[C@H](O)CO)cc1CNC1(c2cnccc2-c2ccccc2OC2CC2)CC1 (stereo partly drawn) [Compound I-355, 5-{3-[({1-[4-(2-cyclopropoxyphenyl)pyridin-3-yl]cyclopropyl}amino)methyl]-4-methylphenyl}-N-(2-hydroxyethyl)-N-[(2S,3R,4R,5R)-2,3,4,5,6-pentahydroxyhexyl]hexanamide] |
| 126 to 1000 | COCCCN(C[C@H](O)[C@@H](O)[C@H](O)[C@H](O)CO)C(=O)CCCSc1ccc(Cl)c(COC2(c3cnccc3-c3ccccc3OC3CC3)CC2)c1 [Compound I-673, 4-{[4-chloro-3-({1-[4-(2-cyclopropoxyphenyl)pyridin-3-yl]cyclopropoxy}methyl)phenyl]sulfanyl}-N-(3-methoxypropyl)-N-[(2S,3R,4R,5R)-2,3,4,5,6-pentahydroxyhexyl]butanamide] |
| 126 to 1000 | CN(C)C(=O)c1ccc(Cl)c(COC2(c3cnccc3-c3ccccc3OC3CC3)CC2)c1 [Compound I-725, 4-Chloro-3-((1-(4-(2-cyclopropoxyphenyl)pyridin-3-yl)cyclopropoxy)methyl)-N,N-dimethylbenzamide] |
| < 100 | CN(CCCCNC(=O)NC[C@H](O)[C@@H](O)[C@H](O)[C@H](O)CO)S(=O)(=O)c1ccc(Cl)c(CNC2(c3cnccc3-c3ccccc3OC3CC3)CC2)c1 [Compound I-471, 1-(4-{N-methyl4-chloro-3-[({1-[4-(2-cyclopropoxyphenyl)pyridin-3-yl]cyclopropyl}amino)methyl]benzenesulfonamido}butyl)-3-[(2S,3R,4R,5R)-2,3,4,5,6-pentahydroxyhexyl]urea] |
| 126 to 1000 | CC(=O)NCCN(CCCSc1ccc(Cl)c(CNC2(c3cnccc3-c3ccccc3OC3CC3)CC2)c1)C(=O)[C@@H](O)[C@@H](O)[C@H](O)[C@@H](O)CO [Compound I-586, (2S,3S,4R,5S)-N-[3-({4-chloro-3-[({1-[4-(2-cyclopropoxyphenyl)pyridin-3-yl]cyclopropyl}amino)methyl]phenyl}sulfanyl)propyl]-N-(2-acetamidoethyl)-2,3,4,5,6-pentahydroxyhexanamide] |

The remaining lines, values behind:

| Structure (SMILES) | EC50 [nM] |
| --- | --- |
| C[C@H](CCCC(=O)NC[C@H](O)[C@@H](O)[C@H](O)[C@H](O)CO)c1ccc(Cl)c(CNC2(c3cnccc3-c3ccccc3OC3CC3)CC2)c1 (single isomer, unassigned) [Compound I-315] | < 100 |
| CC(CCCCN(CCOCCO)C(=O)[C@@H](O)[C@@H](O)[C@H](O)[C@@H](O)CO)c1ccc(Cl)c(CNC2(c3cnccc3-c3ccccc3OC3CC3)CC2)c1 (stereo partly drawn) [Compound I-288, (2S,3S,4R,5S)-N-(5-{4-chloro-3-[({1-[4-(2-cyclopropoxyphenyl)pyridin-3-yl]cyclopropyl}amino)methyl]phenyl}hexyl)-2,3,4,5,6-pentahydroxy-N-[2-(2-hydroxyethoxy)ethyl]hexanamide] | < 100 |
| CC(C)(CC(=O)O)CC(=O)N(CCCCc1cc(Cl)c(COC2(c3cnccc3-c3ccccc3OC3CC3)CC2)cc1Cl)C[C@H](O)[C@@H](O)[C@H](O)[C@H](O)CO [Compound I-196, 4-({4-[2,5-dichloro-4-({1-[4-(2-cyclopropoxyphenyl)pyridin-3-yl]cyclopropoxy}methyl)phenyl]butyl}[(2S,3R,4R,5R)-2,3,4,5,6-pentahydroxyhexyl]carbamoyl)-3,3-dimethylbutanoic acid] | 126 to 1000 |
| Clc1ccc(Cl)c(CNC2(c3cnccc3-c3ccccc3OC3COC3)CC2)c1 [Compound I-19, N-[(2,5-dichlorophenyl)methyl]-1-{4-[2-(oxetan-3-yloxy)phenyl]pyridin-3-yl}cyclopropan-1-amine] | < 100 |
| CN(C[C@H](O)[C@@H](O)[C@H](O)[C@H](O)CO)C(=O)CCCCc1ccc(Cl)c(CNC2(c3cnccc3-c3ccccc3OC3CC3)CC2)c1 (stereo in doubt) [Compound I-234, 5-{4-chloro-3-[({1-[4-(2-cyclopropoxyphenyl)pyridin-3-yl]cyclopropyl}amino)methyl]phenyl}-N-methyl-N-[(2S,3R,4R,5R)-2,3,4,5,6-pentahydroxyhexyl]pentanamide] | < 100 |
| O=C(CCCCc1cc(Cl)c(COC2(c3cnccc3-c3ccccc3OC3CC3)CC2)cc1Cl)N1CCN(C[C@H](O)[C@@H](O)[C@@H](O)[C@H](O)CO)CC1 [Compound I-92, 5-(2,5-dichloro-4-((1-(4-(2-cyclopropoxyphenyl)pyridin-3-yl)cyclopropoxy)methyl)phenyl)-1-(4-((2S,3R,4S,5R)-2,3,4,5,6-pentahydroxyhexyl)piperazin-1-yl)pentan-1-one] | < 100 |
| CC(CCCCN(CCS(C)(=O)=O)C(=O)[C@@H](O)[C@@H](O)[C@H](O)[C@@H](O)CO)c1ccc(Cl)c(CNC2(c3cnccc3-c3ccccc3OC3CC3)CC2)c1 (stereo partly drawn) [Compound I-291, (2S,3S,4R,5S)-N-(5-{4-chloro-3-[({1-[4-(2-cyclopropoxyphenyl)pyridin-3-yl]cyclopropyl}amino)methyl]phenyl}hexyl)-2,3,4,5,6-pentahydroxy-N-(2-methanesulfonylethyl)hexanamide] | < 100 |
| Clc1cccc(CNC2(c3cnccc3-c3ccccc3OC3CC3)CC2)c1Cl [Compound I-26, 1-[4-(2-cyclopropoxyphenyl)pyridin-3-yl]-N-[(2,3-dichlorophenyl)methyl]cyclopropan-1-amine] | 126 to 1000 |

Reference: patent US12084472B2 (Ardelyx, Inc., priority 2015, dated 2024)
